# According to ChEMBL document CHEMBL4028801, “A multifactorial approach to hepatobiliary transporter assessment enables improved therapeutic compound development” (Toxicol Sci, 2013):
# Where a name gives a salt, the structure may show the parent alone.
# Experiments:
# [1] = biological target: T1, ATP-binding cassette sub-family C member 4 (Homo sapiens, UniProt O15439); assay: Inhibition of human MRP4 overexpressed in Sf9 cell membrane vesicles assessed as uptake of [3H]-estradiol-17beta-D-glucuronide in presence of ATP and GSH measured after 20 mins by membrane vesicle transport assay; assay type: ADME, cell-based
# T1 sequence (O15439 whole entry): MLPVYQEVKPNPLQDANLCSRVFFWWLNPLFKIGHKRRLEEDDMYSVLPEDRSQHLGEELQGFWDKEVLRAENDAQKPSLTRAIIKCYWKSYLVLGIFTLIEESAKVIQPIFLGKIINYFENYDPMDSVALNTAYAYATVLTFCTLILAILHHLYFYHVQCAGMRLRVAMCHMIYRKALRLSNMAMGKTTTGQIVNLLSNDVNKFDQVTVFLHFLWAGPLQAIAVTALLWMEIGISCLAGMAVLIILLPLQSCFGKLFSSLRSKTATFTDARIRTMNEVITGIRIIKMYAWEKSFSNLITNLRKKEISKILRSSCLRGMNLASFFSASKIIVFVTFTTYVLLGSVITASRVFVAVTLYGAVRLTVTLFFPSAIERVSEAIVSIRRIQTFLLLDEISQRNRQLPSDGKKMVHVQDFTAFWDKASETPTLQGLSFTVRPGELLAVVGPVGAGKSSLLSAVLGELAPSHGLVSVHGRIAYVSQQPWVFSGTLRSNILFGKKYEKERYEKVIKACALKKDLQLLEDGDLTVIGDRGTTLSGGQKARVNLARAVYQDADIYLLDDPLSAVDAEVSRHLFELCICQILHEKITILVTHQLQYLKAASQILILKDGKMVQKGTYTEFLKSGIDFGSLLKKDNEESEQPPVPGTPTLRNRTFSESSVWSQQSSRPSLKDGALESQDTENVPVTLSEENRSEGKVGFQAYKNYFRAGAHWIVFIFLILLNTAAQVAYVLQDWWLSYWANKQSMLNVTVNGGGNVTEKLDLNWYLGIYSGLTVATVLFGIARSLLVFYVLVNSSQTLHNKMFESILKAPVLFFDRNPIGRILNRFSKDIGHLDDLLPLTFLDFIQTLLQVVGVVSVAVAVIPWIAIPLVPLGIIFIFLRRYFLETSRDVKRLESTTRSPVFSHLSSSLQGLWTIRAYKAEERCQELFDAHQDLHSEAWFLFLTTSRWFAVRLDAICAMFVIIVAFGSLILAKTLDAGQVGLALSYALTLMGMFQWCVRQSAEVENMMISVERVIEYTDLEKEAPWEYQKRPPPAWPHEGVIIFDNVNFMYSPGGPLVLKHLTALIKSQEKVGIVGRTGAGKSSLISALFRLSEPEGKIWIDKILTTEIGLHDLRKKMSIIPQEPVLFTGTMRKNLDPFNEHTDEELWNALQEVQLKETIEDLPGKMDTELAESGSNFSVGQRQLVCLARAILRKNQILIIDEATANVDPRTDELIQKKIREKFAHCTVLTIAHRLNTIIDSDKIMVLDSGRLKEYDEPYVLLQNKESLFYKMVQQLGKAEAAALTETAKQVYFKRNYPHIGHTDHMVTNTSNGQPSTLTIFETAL
# [2] = biological target: ATP-binding cassette sub-family C member 2 (Homo sapiens, UniProt Q92887); assay: Inhibition of human MRP2 overexpressed in Sf9 cell membrane vesicles assessed as uptake of [3H]-estradiol-17beta-D-glucuronide in presence of ATP and GSH measured after 20 mins by membrane vesicle transport assay
# Sequence of ATP-binding cassette sub-family C member 2 (Q92887 whole entry): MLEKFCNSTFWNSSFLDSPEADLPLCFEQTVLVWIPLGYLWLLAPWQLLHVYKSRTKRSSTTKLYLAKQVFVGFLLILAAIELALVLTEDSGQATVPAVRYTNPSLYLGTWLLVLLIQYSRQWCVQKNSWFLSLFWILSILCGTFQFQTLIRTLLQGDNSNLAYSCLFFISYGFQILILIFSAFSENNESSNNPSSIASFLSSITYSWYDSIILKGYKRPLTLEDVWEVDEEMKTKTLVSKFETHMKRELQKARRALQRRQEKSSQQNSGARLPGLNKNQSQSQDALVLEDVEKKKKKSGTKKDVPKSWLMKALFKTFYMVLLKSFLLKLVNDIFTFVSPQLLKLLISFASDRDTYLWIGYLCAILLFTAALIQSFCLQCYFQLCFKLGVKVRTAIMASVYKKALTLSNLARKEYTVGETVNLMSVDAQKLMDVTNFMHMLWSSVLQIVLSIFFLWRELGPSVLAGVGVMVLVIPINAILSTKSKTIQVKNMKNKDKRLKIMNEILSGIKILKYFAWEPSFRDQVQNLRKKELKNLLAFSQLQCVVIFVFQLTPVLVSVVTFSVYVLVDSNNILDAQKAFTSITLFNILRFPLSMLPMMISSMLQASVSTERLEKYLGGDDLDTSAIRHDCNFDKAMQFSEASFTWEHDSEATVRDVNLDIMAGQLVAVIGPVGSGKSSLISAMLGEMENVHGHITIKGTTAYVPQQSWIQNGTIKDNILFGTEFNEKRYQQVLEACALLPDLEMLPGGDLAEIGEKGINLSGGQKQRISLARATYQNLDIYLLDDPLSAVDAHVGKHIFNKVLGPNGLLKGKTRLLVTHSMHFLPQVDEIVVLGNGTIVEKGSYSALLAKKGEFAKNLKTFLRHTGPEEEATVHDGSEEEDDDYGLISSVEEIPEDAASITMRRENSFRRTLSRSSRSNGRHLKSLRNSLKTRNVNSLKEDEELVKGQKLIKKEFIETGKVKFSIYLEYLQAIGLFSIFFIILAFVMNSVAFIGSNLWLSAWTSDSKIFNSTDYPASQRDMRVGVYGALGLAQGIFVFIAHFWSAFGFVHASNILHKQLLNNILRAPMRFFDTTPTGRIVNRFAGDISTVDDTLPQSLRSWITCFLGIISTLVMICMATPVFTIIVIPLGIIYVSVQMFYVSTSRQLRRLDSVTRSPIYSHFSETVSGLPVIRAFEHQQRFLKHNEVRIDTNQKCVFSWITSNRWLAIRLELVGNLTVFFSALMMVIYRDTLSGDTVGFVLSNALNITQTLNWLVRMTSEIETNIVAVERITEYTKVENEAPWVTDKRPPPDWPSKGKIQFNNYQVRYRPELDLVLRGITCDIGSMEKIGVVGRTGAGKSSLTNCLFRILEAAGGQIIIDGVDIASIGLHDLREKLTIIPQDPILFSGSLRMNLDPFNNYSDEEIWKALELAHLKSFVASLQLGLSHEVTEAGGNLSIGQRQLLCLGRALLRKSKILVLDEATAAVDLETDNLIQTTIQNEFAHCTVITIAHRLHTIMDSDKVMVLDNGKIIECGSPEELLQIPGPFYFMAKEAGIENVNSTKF
# [3] = biological target: ATP-binding cassette sub-family C member 3 (Homo sapiens, UniProt O15438); assay: Inhibition of human MRP3 overexpressed in Sf9 insect cell membrane vesicles assessed as uptake of [3H]-estradiol-17beta-D-glucuronide in presence of ATP and GSH measured after 10 mins by membrane vesicle transport assay; assay type: ADME, cell-based
# Sequence of ATP-binding cassette sub-family C member 3 (O15438 whole entry): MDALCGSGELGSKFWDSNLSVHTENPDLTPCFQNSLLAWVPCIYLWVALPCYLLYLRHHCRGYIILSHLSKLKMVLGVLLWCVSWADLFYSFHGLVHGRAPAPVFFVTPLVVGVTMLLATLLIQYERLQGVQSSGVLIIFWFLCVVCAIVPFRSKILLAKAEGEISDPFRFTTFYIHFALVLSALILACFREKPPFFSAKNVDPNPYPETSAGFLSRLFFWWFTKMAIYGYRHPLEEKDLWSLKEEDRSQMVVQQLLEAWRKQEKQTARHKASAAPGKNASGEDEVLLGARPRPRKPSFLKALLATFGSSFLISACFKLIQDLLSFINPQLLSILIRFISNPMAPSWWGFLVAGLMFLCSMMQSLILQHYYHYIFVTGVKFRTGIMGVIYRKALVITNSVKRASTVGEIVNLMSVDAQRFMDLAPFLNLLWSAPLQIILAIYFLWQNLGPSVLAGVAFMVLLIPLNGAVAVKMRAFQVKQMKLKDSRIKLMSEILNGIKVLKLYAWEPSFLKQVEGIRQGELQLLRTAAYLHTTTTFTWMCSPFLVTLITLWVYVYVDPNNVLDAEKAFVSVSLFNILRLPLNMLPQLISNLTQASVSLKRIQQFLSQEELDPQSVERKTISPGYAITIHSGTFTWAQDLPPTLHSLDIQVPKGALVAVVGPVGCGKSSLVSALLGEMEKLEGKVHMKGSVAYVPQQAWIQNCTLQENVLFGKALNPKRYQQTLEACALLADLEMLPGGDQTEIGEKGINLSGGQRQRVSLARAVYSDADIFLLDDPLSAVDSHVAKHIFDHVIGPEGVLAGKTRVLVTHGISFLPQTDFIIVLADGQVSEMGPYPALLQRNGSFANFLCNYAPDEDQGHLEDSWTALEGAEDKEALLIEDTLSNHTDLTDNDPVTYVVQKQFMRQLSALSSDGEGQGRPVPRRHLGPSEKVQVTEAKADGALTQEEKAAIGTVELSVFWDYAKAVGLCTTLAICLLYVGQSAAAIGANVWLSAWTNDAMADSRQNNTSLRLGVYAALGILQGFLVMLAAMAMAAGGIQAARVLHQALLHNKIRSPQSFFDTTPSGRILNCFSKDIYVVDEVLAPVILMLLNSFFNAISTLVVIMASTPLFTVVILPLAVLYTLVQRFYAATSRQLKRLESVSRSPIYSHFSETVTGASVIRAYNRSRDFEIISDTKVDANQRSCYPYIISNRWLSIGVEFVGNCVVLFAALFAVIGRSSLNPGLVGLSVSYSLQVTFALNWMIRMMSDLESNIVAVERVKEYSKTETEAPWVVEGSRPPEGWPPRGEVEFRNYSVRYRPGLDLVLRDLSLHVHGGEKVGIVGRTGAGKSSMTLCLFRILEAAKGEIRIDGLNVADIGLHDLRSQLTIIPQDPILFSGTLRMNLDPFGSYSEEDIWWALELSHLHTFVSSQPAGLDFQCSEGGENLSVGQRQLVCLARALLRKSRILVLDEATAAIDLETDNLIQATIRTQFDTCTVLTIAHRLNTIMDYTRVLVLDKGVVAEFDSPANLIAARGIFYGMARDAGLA
# [4] = biological target: Bile salt export pump (Homo sapiens, UniProt O95342); assay: Inhibition of human BSEP overexpressed in Sf9 cell membrane vesicles assessed as uptake of [3H]-taurocholate in presence of ATP measured after 15 to 20 mins by membrane vesicle transport assay; assay type: ADME, cell-based
# Sequence of Bile salt export pump (O95342 whole entry): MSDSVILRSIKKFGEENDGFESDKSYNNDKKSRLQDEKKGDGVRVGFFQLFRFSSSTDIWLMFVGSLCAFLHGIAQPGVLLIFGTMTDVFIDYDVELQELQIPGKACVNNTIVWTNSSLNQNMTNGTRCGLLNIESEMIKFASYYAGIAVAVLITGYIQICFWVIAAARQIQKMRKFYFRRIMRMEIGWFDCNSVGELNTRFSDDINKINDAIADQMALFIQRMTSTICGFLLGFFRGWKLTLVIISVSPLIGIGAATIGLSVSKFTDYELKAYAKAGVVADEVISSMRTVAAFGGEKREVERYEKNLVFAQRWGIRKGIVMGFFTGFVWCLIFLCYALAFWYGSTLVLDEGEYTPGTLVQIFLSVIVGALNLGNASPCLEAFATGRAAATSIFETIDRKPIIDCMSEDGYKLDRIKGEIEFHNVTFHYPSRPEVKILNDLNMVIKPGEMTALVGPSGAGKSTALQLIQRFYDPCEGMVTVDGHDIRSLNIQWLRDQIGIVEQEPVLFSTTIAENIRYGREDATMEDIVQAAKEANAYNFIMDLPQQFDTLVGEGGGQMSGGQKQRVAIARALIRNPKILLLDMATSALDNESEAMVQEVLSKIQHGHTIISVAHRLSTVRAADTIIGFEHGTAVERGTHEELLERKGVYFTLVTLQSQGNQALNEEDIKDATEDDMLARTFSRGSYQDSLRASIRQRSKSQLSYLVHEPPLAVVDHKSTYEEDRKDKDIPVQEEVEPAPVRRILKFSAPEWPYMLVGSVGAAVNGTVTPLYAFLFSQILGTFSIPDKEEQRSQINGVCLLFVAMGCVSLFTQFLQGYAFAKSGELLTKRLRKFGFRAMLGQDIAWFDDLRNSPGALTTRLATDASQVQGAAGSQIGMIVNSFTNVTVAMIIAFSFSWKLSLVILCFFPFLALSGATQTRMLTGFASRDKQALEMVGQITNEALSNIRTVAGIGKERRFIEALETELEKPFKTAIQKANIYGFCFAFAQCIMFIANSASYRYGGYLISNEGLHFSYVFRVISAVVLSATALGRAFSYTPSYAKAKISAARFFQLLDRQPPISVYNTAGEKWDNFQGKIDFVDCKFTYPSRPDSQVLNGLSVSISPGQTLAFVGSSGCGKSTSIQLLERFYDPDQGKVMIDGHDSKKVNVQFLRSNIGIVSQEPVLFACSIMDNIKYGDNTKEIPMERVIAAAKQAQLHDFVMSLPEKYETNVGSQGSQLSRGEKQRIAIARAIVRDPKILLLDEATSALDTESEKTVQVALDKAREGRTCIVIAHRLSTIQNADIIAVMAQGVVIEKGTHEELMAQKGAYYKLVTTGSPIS
Structure (SMILES),IC50 [1],IC50 [2],IC50 [3],IC50 [4]
Nc1ccc(S(=O)(=O)Nc2ncccn2)cc1 [SULFADIAZINE],> 133 µM,> 133 µM,> 133 µM,> 133 µM
N[C@@H](Cc1ccc(N(CCCl)CCCl)cc1)C(=O)O,> 133 µM,> 133 µM,> 133 µM,> 133 µM
COC(=O)[C@H](c1ccccc1Cl)N1CCc2sccc2C1 [CLOPIDOGREL BISULFATE],> 133 µM,> 133 µM,> 133 µM,72 µM
O=P1(NCCCl)OCCCN1CCCl (centres undefined) [IFOSFAMIDE],> 133 µM,> 133 µM,> 133 µM,> 133 µM
C=C[C@H]1C[N@@]2CC[C@H]1C[C@@H]2[C@@H](O)c1ccnc2ccc(OC)cc12 [QUINIDINE],45.8 µM,> 133 µM,> 133 µM,> 133 µM
O=c1c(O)c(-c2ccc(O)c(O)c2)oc2cc(O)cc(O)c12 [QUERCETIN],20.8 µM,> 133 µM,> 133 µM,> 133 µM
COc1c(N2CCNC(C)C2)c(F)cc2c(=O)c(C(=O)O)cn(C3CC3)c12 (centres undefined) [GATIFLOXACIN],> 133 µM,> 133 µM,> 133 µM,> 133 µM
C=C1CC[C@H](O)C/C1=C/C=C1\CCC[C@]2(C)[C@@H]([C@H](C)/C=C/[C@H](C)C(C)C)CC[C@@H]12 [ERGOCALCIFEROL],> 133 µM,> 133 µM,> 133 µM,75.8 µM
Cc1onc(-c2ccccc2)c1-c1ccc(S(N)(=O)=O)cc1 [VALDECOXIB],> 133 µM,> 133 µM,> 133 µM,> 133 µM
CCCCC[C@H](O)/C=C/[C@@H]1[C@@H](C/C=C\CCCC(=O)O)[C@@H](O)C[C@H]1O [DINOPROST TROMETHAMINE],7.1 µM,[…],[…],[…]
NC(=O)c1cnccn1 [PYRAZINAMIDE],> 133 µM,> 133 µM,> 133 µM,> 133 µM
Cc1oncc1C(=O)Nc1ccc(C(F)(F)F)cc1 [LEFLUNOMIDE],> 133 µM,> 133 µM,> 133 µM,> 133 µM
CC(C)(C#N)c1cc(Cn2cncn2)cc(C(C)(C)C#N)c1 [ANASTROZOLE],> 133 µM,> 133 µM,> 133 µM,> 133 µM
C=CCCCCCCCCC(=O)O [UNDECYLENIC ACID],63.9 µM,> 133 µM,> 133 µM,> 133 µM
C[C@H]1[C@H](OC(=O)CCC(=O)O)O[C@@H]2O[C@@]3(C)CC[C@H]4[C@H](C)CC[C@@H]1[C@@]24OO3 [ARTESUNATE],> 133 µM,> 133 µM,> 133 µM,> 133 µM
Cc1c(OCC(F)(F)F)ccnc1C[S@@+]([O-])c1nc2ccccc2[nH]1 [DEXLANSOPRAZOLE],> 133 µM,> 133 µM,> 133 µM,> 133 µM
C=C1CC[C@@]2(O)[C@H]3Cc4ccc(O)c5c4[C@@]2(CCN3CC2CC2)[C@H]1O5,> 133 µM,> 133 µM,> 133 µM,> 133 µM
CC(=O)Oc1ccc(C(c2ccc(OC(C)=O)cc2)c2ccccn2)cc1 [BISACODYL],> 133 µM,> 133 µM,> 133 µM,> 133 µM

Structure (SMILES),IC50 [1],IC50 [2],IC50 [3],IC50 [4]
CC(=O)NC[C@H]1CN(c2ccc(N3CCOCC3)c(F)c2)C(=O)O1 [LINEZOLID],> 133 µM,> 133 µM,> 133 µM,> 133 µM
Nc1cc(-c2ccncc2)c[nH]c1=O [INAMRINONE],> 133 µM,> 133 µM,> 133 µM,> 133 µM
C[C@H]1O[C@@H](O[C@H]2[C@@H](O)C[C@H](O[C@H]3[C@@H](O)C[C@H](O[C@H]4CC[C@@]5(C)[C@H](CC[C@@H]6[C@@H]5CC[C@]5(C)[C@@H](C7=CC(=O)OC7)CC[C@]65O)C4)O[C@@H]3C)O[C@@H]2C)C[C@H](O)[C@@H]1O [DIGITOXIN],> 133 µM,> 133 µM,> 133 µM,31 µM
N[C@@H](Cc1ccc(O)c(O)c1)C(=O)O [LEVODOPA],> 133 µM,> 133 µM,> 133 µM,> 133 µM
Cn1nnc2c(C(N)=O)ncn2c1=O [TEMOZOLOMIDE],> 133 µM,> 133 µM,> 133 µM,> 133 µM
CC(C(=O)O)c1ccc2c(c1)[nH]c1ccc(Cl)cc12 (centres undefined) [CARPROFEN],3 µM,> 133 µM,> 133 µM,> 133 µM
CC(C)(C)NC[C@H](O)COc1nsnc1N1CCOCC1 [TIMOLOL],> 133 µM,> 133 µM,> 133 µM,> 133 µM
COc1cccc2c1C(=O)c1c(O)c3c(c(O)c1C2=O)C[C@@](O)(C(=O)CO)C[C@@H]3O[C@H]1C[C@H](N)[C@@H](O)[C@H](C)O1 [EPIRUBICIN HYDROCHLORIDE],> 133 µM,> 133 µM,> 133 µM,> 133 µM
C[C@@H](O[C@H]1OCCN(Cc2n[nH]c(=O)[nH]2)[C@H]1c1ccc(F)cc1)c1cc(C(F)(F)F)cc(C(F)(F)F)c1 [APREPITANT],> 133 µM,> 133 µM,> 133 µM,> 133 µM
CO/N=C(\C(=O)N[C@@H]1C(=O)N2C(C(=O)O)=C(COC(C)=O)CS[C@H]12)c1csc(N)n1 [CEFOTAXIME SODIUM],24 µM,> 133 µM,> 133 µM,> 133 µM
CCn1cc(C(=O)O)c(=O)c2cc(F)c(N3CCN(C)CC3)cc21 [PEFLOXACIN],> 133 µM,> 133 µM,> 133 µM,> 133 µM
Nc1nc2ccc(OC(F)(F)F)cc2s1 [RILUZOLE],> 133 µM,> 133 µM,> 133 µM,> 133 µM
CC(C)(C)c1ccc(C(O)CCCN2CCC(C(O)(c3ccccc3)c3ccccc3)CC2)cc1 (centres undefined) [TERFENADINE],> 133 µM,> 133 µM,> 133 µM,> 133 µM
NCC[C@H](O)C(=O)N[C@@H]1C[C@H](N)[C@@H](O[C@H]2O[C@H](CN)[C@@H](O)[C@H](O)[C@H]2O)[C@H](O)[C@H]1O[C@H]1O[C@H](CO)[C@@H](O)[C@H](N)[C@H]1O [AMIKACIN],> 133 µM,> 133 µM,> 133 µM,> 133 µM
CO[C@H]1/C=C/O[C@@]2(C)Oc3c(C)c(O)c4c(O)c(c5c(nc6cc(C)ccn65)c4c3C2=O)NC(=O)/C(C)=C\C=C\[C@H](C)[C@H](O)[C@@H](C)[C@@H](O)[C@@H](C)[C@H](OC(C)=O)[C@@H]1C [RIFAXIMIN],30.2 µM,15.4 µM,65 µM,42 µM
O=C(NCCO[N+](=O)[O-])c1cccnc1 [NICORANDIL],> 133 µM,> 133 µM,> 133 µM,> 133 µM
CS(=O)(=O)c1ccc([C@@H](O)[C@@H](CO)NC(=O)C(Cl)Cl)cc1 [THIAMPHENICOL],> 133 µM,> 133 µM,> 133 µM,> 133 µM
CC(C)(C)c1ccc(C(=O)CCCN2CCC(OC(c3ccccc3)c3ccccc3)CC2)cc1 [EBASTINE],> 133 µM,> 133 µM,> 133 µM,> 133 µM
